Assays:
Assay type in all cases: biochemical
Conditions in all cases: HeLa S3 lysate, sfGFP/mCherry ratio, 2 hrs at 30° C.
MYC = experiment: In vitro transcription-translation (IVTT) assay, MYC reporter
Method in brief: (§1)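 Reporter: mCherry, P2A, then 3×FLAG-target peptide-sfGFP fusion, IRES-initiated; HeLa S3 lysate IVTT; cpd dilutions 30 μM−0.1 μM half-log in 100% DMSO (dilution-plate conc); DNA added last; 2 h, 30° C; PBS quench.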

BCL-2 = experiment: In vitro transcription-translation (IVTT) assay, BCL-2 reporter
From the text: All reporter constructs have been cloned into the pT7CFE1-CHis plasmid (ThermoFisher #88860) using Gibson assembly procedures (NEB #E2611L). The parental pT7CFE1-CHis plasmid contains an EMCV IRES at the 5′UTR for translation initiation, a multiple-cloning site (MCS) for gene insertion, an optional C-terminal His-epitope tag, and polyA sequence in the 3′UTR to regulate mRNA stability. All reporters are designed to be inserted at the MCS to include a red fluorescent protein (mCherry), P2A self-cleaving peptide which releases the preceding mCherry protein product, and a fusion open reading frame containing a 3×FLAG epitope, a peptide sequence of interest (TEST), and green fluorescent protein (sfGFP).
Construct Plasmid Preparation: All plasmids are isolated from MACH1 cells (ThermoFisher) grown overnight in ampicillin-containing luria broth, and purified using ZymoPure Express Plasmid Midiprep Kit (Zymo Research). Constructs are sequenced verified and diluted to a working concentration of 110 ng/μL.
HeLa S3 Lysate Preparation: HeLa S3 cell pellets are acquired from Ipracell/Ipratech (Belgium) and shipped as 4 mL frozen cell pellets on dry ice for storage at −80° C. until use. The procedure for lysate preparation is as follows. Prepare 1× Lysis Buffer, cold and stored on ice:
Each preparation takes 8 cell pellets (4 ml packed volume each, approximately 1.0×10^9 cells per pellet). Thaw cell pellets from −80° C. on ice for 90 mins. Lay pellets horizontally on top of the ice and rotate every 30 mins to ensure even thawing. Once thawed, add 4 mL of cold lysis buffer to each pellet, and using a serological pipet, gently pipet up and down to break up clumps. Incubate resuspended cells in ice for an additional 30 mins (plunged into ice). During 30 min incubation, rinse and RNase-zap (Ambion) glass dounces (use loose pestle “A”), gently dry and place on ice until needed. Prepare RNase-free Eppendorf tubes for spinning and for batch storage. Add batch labels to 1.5-1.7 mL RNase-free microcentrifuge tubes (labeling scheme below). Each batch will have an extra 1.5-1.7 mL RNase-free microcentrifuge tube for 40 μL of lysate, label the top of this tube (labeling scheme below). After 30 min incubation, transfer all 8 mL of cell pellet to dounce. Cell lysis is complete after douncing 100 times. Aliquot cell lysis into 1.5-1.7 mL temporary-microcentrifuge tubes. Place tubes in centrifuge with “fins” out, and spin at 1,200×g for 5 mins. After the first spin use a 1 mL pipet to resuspend each tube and repeat spin. This acts as an additional lysis step, is more vigorous and increases lysate yield. During second spin get liquid N2 and a fresh conical tube on ice. After spin is complete, transfer supernatant (lysate) from microcentrifuge tubes into the 50 mL conical tube and keep on ice. Repeat steps 10-14 for all other cell pellets until completed. Once all cell lysate has been transferred to the 50 mL conical tube pipet to mix so the solution is homogenous. Transfer 1 mL of lysate into batch-labeled microcentrifuge tubes and flash freeze in liquid nitrogen. Be sure to pipet up and down to mix throughout transfer step. Place all tubes in the […] for long-term storage.
In vitro transcription-translation assay setup: Each assay includes a master mix containing lysate and shared components, a 96-well plate containing compound titrations for testing, a 96-well DNA plate with reporter constructs to be tested, 96-well skirted PCR plates, and 96-well flat-bottom, black, fluorescent assay plates. […]

MCL-1 = experiment: In vitro transcription-translation (IVTT) assay, MCL-1 reporter
Method in brief: as §1

CCND1 = experiment: In vitro transcription-translation (IVTT) assay, CCND1 reporter
Method in brief: as §1

ALK = experiment: In vitro transcription-translation (IVTT) assay, ALK reporter
Method in brief: as §1

KRAS G12D = experiment: In vitro transcription-translation (IVTT) assay, KRAS G12D reporter
Method in brief: as §1

Structure (SMILES) | IC50 (MYC) [µM] | IC50 (BCL-2) [µM] | IC50 (MCL-1) [µM] | IC50 (CCND1) [µM] | IC50 (ALK) [µM] | IC50 (KRAS G12D) [µM]
COc1ccc(C[C@H]2NC[C@H](O)[C@H]2OC(=O)NC[C@H]2CCCNC2)cc1 [V187930, (2R,3S,4S)-4-hydroxy-2-[(4-methoxyphenyl)methyl]pyrrolidin-3-yl N-[(3S)-piperidin-3-ylmethyl]carbamate] | 20 to 30 | > 30 | 20 to 30 | 20 to 30 |  | 
COc1ccc(C[C@H]2NC[C@H](O)[C@H]2OC(=O)NCCc2ccn(C)n2)cc1 [V187847, (2R,3S,4S)-4-hydroxy-2-[(4-methoxyphenyl)methyl]pyrrolidin-3-yl N-[2-(1-methylpyrazol-3-yl)ethyl]carbamate] | < 10 | 20 to 30 | < 10 | 10 to 20 |  | 
COc1ccc(C[C@H]2NC[C@H](O)[C@H]2OC(=O)NCc2ccc(-c3ccccc3)cc2)cc1 [V187977, (2R,3S,4S)-4-hydroxy-2-[(4-methoxyphenyl)methyl]pyrrolidin-3-yl N-{[1,1′-biphenyl]-4-ylmethyl}carbamate] | > 30 | > 30 | > 30 | > 30 |  | 
COc1ccc(C[C@H]2NC[C@H](O)[C@H]2OC(=O)NCCNc2ncnc3nc[nH]c23)cc1 [V188060, (2R,3S,4S)-4-hydroxy-2-[(4-methoxyphenyl)methyl]pyrrolidin-3-yl N-[2-(7H-purin-6-ylamino)ethyl]carbamate] | 10 to 20 | > 30 | > 30 | 20 to 30 |  | 
COc1ccc(C[C@H]2NC[C@H](O)[C@H]2OC(=O)NCC(=O)O)cc1 [V188016] | > 30 | > 30 | > 30 | > 30 |  | 
COc1ccc(C[C@H]2NC[C@H](O)[C@H]2OC(=O)NCCc2cc(C)on2)cc1 [V187719, (2R,3S,4S)-4-hydroxy-2-[(4-methoxyphenyl)methyl]pyrrolidin-3-yl N-[2-(5-methyl-1,2-oxazol-3-yl)ethyl]carbamate] | < 10 | 10 to 20 | < 10 | < 10 |  | 
COc1ccc(C[C@H]2NC[C@H](O)[C@H]2OC(=O)NCC(=O)NCC(N)=O)cc1 [V188021, (2R,3S,4S)-4-hydroxy-2-[(4-methoxyphenyl)methyl]pyrrolidin-3-yl N-[(carbamoylmethylcarbamoyl)methyl]carbamate] | 20 to 30 | 20 to 30 | 10 to 20 | 20 to 30 |  | 
COc1ccc(C[C@H]2NC[C@H](O)[C@H]2OC(=O)NCC2(F)CNC2)cc1 [V187877, (2R,3S,4S)-4-hydroxy-2-[(4-methoxyphenyl)methyl]pyrrolidin-3-yl N-[(3-fluoroazetidine-3-yl)methyl]carbamate] | > 30 | > 30 | > 30 | > 30 |  | 
COc1ccc(C[C@H]2NC[C@H](O)[C@H]2OC(=O)NCc2c[nH]cn2)cc1 [V187192, (2R,3S,4S)-4-hydroxy-2-[(4-methoxyphenyl)methyl]pyrrolidin-3-yl N-(1H-imidazol-4-ylmethyl)carbamate] | < 10 | < 10 | < 10 | < 10 | < 10 | < 10
COc1ccc(C[C@H]2NC[C@H](O)[C@H]2OC(=O)NCc2cccnn2)cc1 [V187916, (2R,3S,4S)-4-hydroxy-2-[(4-methoxyphenyl)methyl]pyrrolidin-3-yl N-(pyridazin-3-ylmethyl)carbamate] | < 10 | < 10 | < 10 | < 10 |  | 
COc1ccc(C[C@H]2NC[C@H](O)[C@H]2OC(=O)NCCc2ccncc2)cc1 [V187807, (2R,3S,4S)-4-hydroxy-2-[(4-methoxyphenyl)methyl]pyrrolidin-3-yl N-[2-(pyridin-4-yl)ethyl]carbamate] | < 10 | < 10 | < 10 |  | < 10 | < 10
COc1ccc(C[C@H]2NC[C@H](O)[C@H]2OC(=O)NCCNc2nc(N)nc3nc[nH]c23)cc1 [Cmpd V188056] | 20 to 30 | > 30 | > 30 | > 30 |  | 
COc1ccc(C[C@H]2NC[C@H](O)[C@H]2OC(=O)NCCc2cnc[nH]2)cc1 [V187593, (2R,3S,4S)-4-hydroxy-2-[(4-methoxyphenyl)methyl]pyrrolidin-3-yl N-[2-(3H-imidazol-4-yl)ethyl]carbamate] | < 10 | < 10 | < 10 | < 10 | < 10 | < 10
COc1ccc(C[C@H]2NC[C@H](O)[C@H]2OC(=O)NNC(=O)c2ccccc2)cc1 [V187812, N′-({[(2R,3S,4S)-4-hydroxy-2-[(4-methoxyphenyl)methyl]pyrrolidin-3-yl]oxy}carbonyl)benzohydrazide] | < 10 | 10 to 20 | < 10 | < 10 |  | 
COc1ccc(C[C@H]2NC[C@H](O)[C@H]2OC(=O)NCC(=O)N[C@@H](C)C(N)=O)cc1 [Cmpd V188022] | 10 to 20 | 20 to 30 | < 10 | > 30 |  | 
COc1ccc(C[C@H]2NC[C@H](O)[C@H]2OC(=O)NCc2ccnc(OC)c2)cc1 [V188051, (2R,3S,4S)-4-hydroxy-2-[(4-methoxyphenyl)methyl]pyrrolidin-3-yl N-[(2-methoxypyridin-4-yl)methyl]carbamate] | < 10 | < 10 | < 10 | < 10 |  | 
COc1ccc(C[C@H]2NC[C@H](O)[C@H]2OC(=O)NCCc2cc[nH]n2)cc1 [V187698, (2R,3S,4S)-4-hydroxy-2-[(4-methoxyphenyl)methyl]pyrrolidin-3-yl N-[2-(1H-pyrazol-3-yl)ethyl]carbamate; trifluoroacetic acid] | < 10 | < 10 | < 10 | < 10 | < 10 | < 10
COc1ccc(C[C@H]2NC[C@H](O)[C@H]2OC(=O)NCc2cc(Cl)[nH]n2)cc1 [Cmpd V187860] | < 10 | < 10 | < 10 | < 10 |  | 
COc1ccc(C[C@H]2NC[C@H](O)[C@H]2OC(=O)NCc2ccn[nH]2)cc1 [V187321, (2R,3S,4S)-4-hydroxy-2-[(4-methoxyphenyl)methyl]pyrrolidin-3-yl N-(2H-pyrazol-3-ylmethyl)carbamate; trifluoroacetic acid] | < 10 | < 10 | < 10 | < 10 | < 10 | < 10

Source: patent US20250129021A1, “SMALL MOLECULE PROTEIN SYNTHESIS MODULATORS” (Interdict Bio, Inc., priority 2023, published 2025)
